Values quoted from earlier work as cited in US20160082019A1, “Drug Combinations to Treat Cancer” (EXELIXIS, INC., priority 2013, published 2016).

Details: cabozantinib alone; in some cases normalized; independent of PSA declines

For COc1cc2nccc(Oc3ccc(NC(=O)C4(C(=O)Nc5ccc(F)cc5)CC4)cc3)c2cc1OC [Cabozantinib, N-(4-{[6,7-bis(methyloxy)quinolin-4-yl]oxy}phenyl)-N′-(4-fluorophenyl)cyclopropane-1,1-dicarboxamide], the “uptake on bone scans” value is given as “decrease uptake on bone scans”.
